Patent publication US20230391739A1, “ARYL DERIVATIVES FOR TREATING TRPM3 MEDIATED DISORDERS” (Katholieke Universiteit Leuven, priority 2020, published 2023)

molecular target: T1, mouse TRPM3α2 (mTRPM3) ion channel (Mus musculus, UniProt J9SQF3); assay: TRPM3 ion channel driven Ca2+ uptake, Fluo-4 AM assay, PS-stimulated (mTRPM3); assay type: cell-based; settings: TRPM3 overexpressing flip-in HEK293 cells stimulated with Pregnenolone sulfate (PS) 50 μM, activity ranges A, B, C
T1 construct: expressed in transfected cells; host or cells: flip-in HEK293
T1 sequence (J9SQF3 1-1709 isoform J9SQF3-12): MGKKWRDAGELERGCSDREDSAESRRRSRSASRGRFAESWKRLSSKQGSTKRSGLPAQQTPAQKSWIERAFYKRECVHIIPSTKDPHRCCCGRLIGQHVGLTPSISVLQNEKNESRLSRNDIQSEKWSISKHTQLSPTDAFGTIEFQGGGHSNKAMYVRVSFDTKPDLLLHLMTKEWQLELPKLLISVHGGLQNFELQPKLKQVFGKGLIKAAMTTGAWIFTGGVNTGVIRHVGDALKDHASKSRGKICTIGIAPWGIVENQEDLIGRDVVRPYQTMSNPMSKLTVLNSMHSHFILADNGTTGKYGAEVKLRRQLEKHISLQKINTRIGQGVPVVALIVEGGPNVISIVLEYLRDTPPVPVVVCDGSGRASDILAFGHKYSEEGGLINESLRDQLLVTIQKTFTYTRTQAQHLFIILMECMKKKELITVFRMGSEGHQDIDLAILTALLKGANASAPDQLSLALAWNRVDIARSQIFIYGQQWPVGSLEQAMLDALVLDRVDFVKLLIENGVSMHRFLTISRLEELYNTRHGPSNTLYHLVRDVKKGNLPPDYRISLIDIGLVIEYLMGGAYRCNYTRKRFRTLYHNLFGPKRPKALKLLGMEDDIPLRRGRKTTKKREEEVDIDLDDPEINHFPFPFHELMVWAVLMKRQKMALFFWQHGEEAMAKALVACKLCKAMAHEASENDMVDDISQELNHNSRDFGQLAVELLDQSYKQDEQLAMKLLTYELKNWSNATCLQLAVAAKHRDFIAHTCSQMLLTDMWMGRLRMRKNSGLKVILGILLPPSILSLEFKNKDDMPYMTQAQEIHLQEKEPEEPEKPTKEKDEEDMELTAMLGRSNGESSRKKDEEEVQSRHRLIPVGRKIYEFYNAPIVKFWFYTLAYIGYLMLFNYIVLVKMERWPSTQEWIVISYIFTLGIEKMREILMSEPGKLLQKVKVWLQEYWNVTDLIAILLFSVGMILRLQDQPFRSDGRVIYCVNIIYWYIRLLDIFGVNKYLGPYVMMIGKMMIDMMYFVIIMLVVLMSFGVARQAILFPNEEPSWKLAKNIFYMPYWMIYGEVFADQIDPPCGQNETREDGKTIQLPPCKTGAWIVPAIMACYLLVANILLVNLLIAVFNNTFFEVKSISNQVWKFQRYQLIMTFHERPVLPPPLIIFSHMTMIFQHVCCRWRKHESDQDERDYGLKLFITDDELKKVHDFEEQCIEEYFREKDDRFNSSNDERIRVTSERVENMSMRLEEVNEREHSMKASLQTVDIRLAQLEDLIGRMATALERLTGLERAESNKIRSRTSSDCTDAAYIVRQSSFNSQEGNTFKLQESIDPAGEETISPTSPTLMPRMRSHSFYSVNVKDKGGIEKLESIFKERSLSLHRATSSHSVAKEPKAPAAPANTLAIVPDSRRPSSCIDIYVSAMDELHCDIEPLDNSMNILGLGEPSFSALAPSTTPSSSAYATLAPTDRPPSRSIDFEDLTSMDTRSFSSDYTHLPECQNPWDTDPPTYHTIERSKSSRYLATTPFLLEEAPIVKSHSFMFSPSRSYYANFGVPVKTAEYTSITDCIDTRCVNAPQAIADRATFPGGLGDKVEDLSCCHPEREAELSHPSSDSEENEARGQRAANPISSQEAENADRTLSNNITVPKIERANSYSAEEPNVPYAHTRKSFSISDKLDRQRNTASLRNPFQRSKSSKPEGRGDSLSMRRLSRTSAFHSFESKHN
How it was run: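 Ca²⁺ influx through mouse TRPM3α2, opened by 50 μM pregnenolone sulfate, was tracked with Fluo-4 AM in stably transfected HEK293 cells read directly after seeding onto pre-dispensed compound.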

SMILES	IC50
CCNC(=O)c1c(C)oc2ccc(OCc3ccccc3)cc12 [Cpd 038, 5-(benzyloxy)-N-ethyl-2-methylbenzofuran-3-carboxamide]	1000 to 20000 nM
Cc1oc2ccc(OCc3ccccc3)cc2c1C(=O)NC1CC1 [Cpd 039, 5-(benzyloxy)-N-cyclopropyl-2-methylbenzofuran-3-carboxamide]	1000 to 20000 nM
CCCNC(=O)c1c(C)oc2ccc(OCc3ccccc3)cc12 [Cpd 040, 5-(benzyloxy)-2-methyl-N-propylbenzofuran-3-carboxamide]	1000 to 20000 nM
Cc1oc2ccc(OCc3c(F)cccc3Cl)cc2c1C(N)=O [Cpd 041, 5-((2-chloro-6-fluorobenzyl)oxy)-2-methylbenzofuran-3-carboxamide]	< 1000 nM
Cc1oc2ccc(OCc3ccccc3)cc2c1C(=O)NC1CNC1 [Cpd 042, N-(azetidin-3-yl)-5-(benzyloxy)-2-methylbenzofuran-3-carboxamide]	> 20000 nM
Cc1oc2ccc(OCc3ccccc3)cc2c1C(=O)NC1COC1 [Cpd 043, 5-(benzyloxy)-2-methyl-N-(oxetan-3-yl)benzofuran-3-carboxamide]	< 1000 nM
COCCNC(=O)c1c(C)oc2ccc(OCc3ccccc3)cc12 [Cpd 044, 5-(benzyloxy)-N-(2-methoxyethyl)-2-methylbenzofuran-3-carboxamide]	1000 to 20000 nM
CNC(=O)c1c(C)oc2ccc(OCc3c(F)cccc3Cl)cc12 [Cpd 045, 5-((2-chloro-6-fluorobenzyl)oxy)-N,2-dimethylbenzofuran-3-carboxamide]	< 1000 nM
Cc1oc2ccc(OCc3ccccc3)cc2c1C(=O)NC1CCCC1 [Cpd 046, 5-(benzyloxy)-N-cyclopentyl-2-methylbenzofuran-3-carboxamide]	< 1000 nM
Cc1oc2ccc(OCc3ccccc3)cc2c1C(=O)N1CCCCC1 [Cpd 047, (5-(benzyloxy)-2-methylbenzofuran-3-yl)(piperidin-1-yl)methanone]	> 20000 nM
Cc1oc2ccc(OCc3ccccc3)cc2c1C(=O)N[C@@H]1CCNC1 [Cpd 048, (R)-5-(benzyloxy)-2-methyl-N-(pyrrolidin-3-yl)benzofuran-3-carboxamide]	< 1000 nM
Cc1oc2ccc(OCc3ccccc3)cc2c1C(=O)N[C@H]1CCNC1 [Cpd 049, (S)-5-(benzyloxy)-2-methyl-N-(pyrrolidin-3-yl)benzofuran-3-carboxamide]	< 1000 nM
Cc1oc2ccc(OCc3ccccc3)cc2c1C(=O)N1CCOCC1 [Cpd 050, (5-(benzyloxy)-2-methylbenzofuran-3-yl)(morpholino)methanone]	> 20000 nM
Cc1oc2ccc(OCc3ccccc3)cc2c1C(=O)NC1CCOC1 (centres unmarked) [Cpd 051, 5-(benzyloxy)-2-methyl-N-(tetrahydrofuran-3-yl)benzofuran-3-carboxamide]	< 1000 nM
Cc1oc2ccc(OCc3ccccc3)cc2c1C(=O)NC1CC(O)C1 (centres unmarked) [Cpd 052, 5-(benzyloxy)-N-(3-hydroxycyclobutyl)-2-methylbenzofuran-3-carboxamide]	< 1000 nM
Cc1oc2ccc(OCc3ccccc3)cc2c1C(=O)N[C@H]1C[C@H](O)C1 [Cpd 053, 5-(benzyloxy)-N-(trans-3-hydroxycyclobutyl)-2-methylbenzofuran-3-carboxamide]	< 1000 nM
Cc1oc2ccc(OCc3ccccc3)cc2c1C(=O)N[C@H]1C[C@@H](O)C1 [Cpd 054, 5-(benzyloxy)-N-(cis-3-hydroxycyclobutyl)-2-methylbenzofuran-3-carboxamide]	< 1000 nM
Cc1oc2ccc(OCc3ccccc3)cc2c1C(=O)NCCN(C)C [Cpd 055, 5-(benzyloxy)-N-(2-(dimethylamino)ethyl)-2-methylbenzofuran-3-carboxamide]	1000 to 20000 nM
COCCCNC(=O)c1c(C)oc2ccc(OCc3ccccc3)cc12 [Cpd 056, 5-(benzyloxy)-N-(3-methoxypropyl)-2-methylbenzofuran-3-carboxamide]	1000 to 20000 nM
Cc1oc2ccc(OCc3ccccc3)cc2c1C(=O)NCC(O)CO (centres unmarked) [Cpd 057, 5-(benzyloxy)-N-(2,3-dihydroxypropyl)-2-methylbenzofuran-3-carboxamide]	< 1000 nM
Cc1oc2ccc(OCc3ccccc3)cc2c1C(=O)Nc1ccccc1 [Cpd 058, 5-(benzyloxy)-2-methyl-N-phenylbenzofuran-3-carboxamide]	< 1000 nM
Cc1oc2ccc(OCc3ccccc3)cc2c1C(=O)Nc1cccnc1 [Cpd 059, 5-(benzyloxy)-2-methyl-N-(pyridin-3-yl)benzofuran-3-carboxamide]	< 1000 nM
Cc1oc2ccc(OCc3ccccc3)cc2c1C(=O)Nc1ccncc1 [Cpd 060, 5-(benzyloxy)-2-methyl-N-(pyridin-4-yl)benzofuran-3-carboxamide]	< 1000 nM
Cc1oc2ccc(OCc3ccccc3)cc2c1C(=O)Nc1cnccn1 [Cpd 061, 5-(benzyloxy)-2-methyl-N-(pyrazin-2-yl)benzofuran-3-carboxamide]	< 1000 nM

SMILES	IC50
Cc1oc2ccc(OCc3ccccc3)cc2c1C(=O)Nc1cccnn1 [Cpd 062, 5-(benzyloxy)-2-methyl-N-(pyridazin-3-yl)benzofuran-3-carboxamide]	> 20000 nM
Cc1oc2ccc(OCc3ccccc3)cc2c1C(=O)NS(C)(=O)=O [Cpd 063, 5-(benzyloxy)-2-methyl-N-(methylsulfonyl)benzofuran-3-carboxamide]	1000 to 20000 nM
Cc1oc2ccc(OCc3ccccc3)cc2c1C(=O)Nc1ccn(C)n1 [Cpd 064, 5-(benzyloxy)-2-methyl-N-(1-methyl-1H-pyrazol-3-yl)benzofuran-3-carboxamide]	< 1000 nM
Cc1oc2ccc(OCc3c(F)cccc3Cl)cc2c1C(=O)N(C)C [Cpd 065, 5-((2-chloro-6-fluorobenzyl)oxy)-N,N,2-trimethylbenzofuran-3-carboxamide]	1000 to 20000 nM
Cc1oc2ccc(OCc3ccccc3)cc2c1C(=O)NC1CCCCC1 [Cpd 066, 5-(benzyloxy)-N-cyclohexyl-2-methylbenzofuran-3-carboxamide]	< 1000 nM
Cc1oc2ccc(OCc3ccccc3)cc2c1C(=O)N1CCC(C)CC1 [Cpd 067, (5-(benzyloxy)-2-methylbenzofuran-3-yl)(4-methylpiperidin-1-yl)methanone]	1000 to 20000 nM
Cc1oc2ccc(OCc3ccccc3)cc2c1C(=O)NC1CNC(=O)C1 (centres unmarked) [Cpd 068, 5-(benzyloxy)-2-methyl-N-(5-oxopyrrolidin-3-yl)benzofuran-3-carboxamide]	1000 to 20000 nM
Cc1oc2ccc(OCc3ccccc3)cc2c1C(=O)N[C@H]1CCNC1=O [Cpd 069, (S)-5-(benzyloxy)-2-methyl-N-(2-oxopyrrolidin-3-yl)benzofuran-3-carboxamide]	< 1000 nM
Cc1oc2ccc(OCc3ccccc3)cc2c1C(=O)N[C@@H]1CCNC1=O [Cpd 070, 5-(benzyloxy)-2-methyl-N-(2-oxopyrrolidin-3-yl)benzofuran-3-carboxamide]	< 1000 nM
Cc1oc2ccc(OCc3ccccc3)cc2c1C(=O)NC1CCNC1=O (centres unmarked) [Cpd 071, 5-(benzyloxy)-2-methyl-N-(2-oxopyrrolidin-3-yl)benzofuran-3-carboxamide]	< 1000 nM
Cc1oc2ccc(OCc3ccccc3)cc2c1C(=O)N1CCN(C)CC1 [Cpd 072, (5-(benzyloxy)-2-methylbenzofuran-3-yl)(4-methylpiperazin-1-yl)methanone]	> 20000 nM
Cc1oc2ccc(OCc3ccccc3)cc2c1C(=O)N1CCC(N)CC1 [Cpd 073, (4-aminopiperidin-1-yl)(5-(benzyloxy)-2-methylbenzofuran-3-yl)methanone]	> 20000 nM
Cc1oc2ccc(OCc3ccccc3)cc2c1C(=O)NC1CCNCC1 [Cpd 074, 5-(benzyloxy)-2-methyl-N-(piperidin-4-yl)benzofuran-3-carboxamide]	< 1000 nM
Cc1oc2ccc(OCc3ccccc3)cc2c1C(=O)NC1CCCNC1 (centres unmarked) [Cpd 075, 5-(benzyloxy)-2-methyl-N-(piperidin-3-yl)benzofuran-3-carboxamide]	< 1000 nM
Cc1oc2ccc(OCc3ccccc3)cc2c1C(=O)NC1CCN(C)C1 (centres unmarked) [Cpd 076, 5-(benzyloxy)-2-methyl-N-(1-methylpyrrolidin-3-yl)benzofuran-3-carboxamide]	< 1000 nM
Cc1oc2ccc(OCc3ccccc3)cc2c1C(=O)NCC1CCNC1 (centres unmarked) [Cpd 077, 5-(benzyloxy)-2-methyl-N-(pyrrolidin-3-ylmethyl)benzofuran-3-carboxamide]	1000 to 20000 nM
Cc1oc2ccc(OCc3ccccc3)cc2c1C(=O)NCC1CCCN1 (centres unmarked) [Cpd 078, 5-(benzyloxy)-2-methyl-N-(pyrrolidin-2-ylmethyl)benzofuran-3-carboxamide]	< 1000 nM
Cc1oc2ccc(OCc3ccccc3)cc2c1C(=O)N[C@H]1CCN(C)C1 [Cpd 079, (S)-5-(benzyloxy)-2-methyl-N-(1-methylpyrrolidin-3-yl)benzofuran-3-carboxamide]	< 1000 nM
Cc1oc2ccc(OCc3ccccc3)cc2c1C(=O)N[C@@H]1CCN(C)C1 [Cpd 080, (R)-5-(benzyloxy)-2-methyl-N-(1-methylpyrrolidin-3-yl)benzofuran-3-carboxamide]	< 1000 nM
CN1CCC(NC(=O)c2coc3ccc(OCc4ccccc4)cc23)CC1 [Cpd 081, 5-(benzyloxy)-N-(1-methylpiperidin-4-yl)benzofuran-3-carboxamide]	1000 to 20000 nM
Cc1oc2ccc(OCc3ccccc3)cc2c1C(=O)NC1(CN)CCC1 [Cpd 082, N-(1-(aminomethyl)cyclobutyl)-5-(benzyloxy)-2-methylbenzofuran-3-carboxamide]	< 1000 nM
Cc1ccccc1COc1ccc2oc(C)c(C(=O)N[C@H]3CCNC3)c2c1 [Cpd 083, (S)-2-methyl-5-((2-methylbenzyl)oxy)-N-(pyrrolidin-3-yl)benzofuran-3-carboxamide]	< 1000 nM
Cc1cccc(COc2ccc3oc(C)c(C(=O)N[C@H]4CCNC4)c3c2)c1 [Cpd 084, (S)-2-methyl-5-((3-methylbenzyl)oxy)-N-(pyrrolidin-3-yl)benzofuran-3-carboxamide]	< 1000 nM
